Patent publication US12195706B2, “Formation of arrays of planar intestinal crypts possessing a stem/proliferative cell compartment and differentiated cell zone” (THE UNIVERSITY OF NORTH CAROLINA AT CHAPEL HILL, priority 2018, dated 2025)

Legend:
[1] = system: mouse intestinal epithelial cells; assay: Effect of short chain fatty acids on proliferation and differentiation on planar crypt arrays; type: cell-based; details: day 3-4 (DM/EM); for ALP activity relative to the control / normalized area of EdU+ cells compared to control without short chain fatty acid: 24 mM acetate, 6 mM propionate or 1 mM butyrate in DM luminal medium; for ALP activity relative to the control: ALP+ area normalized to Hoechst 33342 area; for normalized area of EdU+ cells compared to control without short chain fatty acid: EdU+ area normalized to Hoechst 33342 area
Experimental: EM was replaced with fresh EM every 2 days. The cells were sub-cultured every 3-5 days by degrading collagen with collagenase and dissociating the cells with 0.5 mM EDTA into clumps of cells. […] When placing cells onto the surface of the microdevice, the cell suspension was diluted 1 to 2 in EM and overlaid onto the microdevice surface. The cells were cultured for 2 days with EM placed into the luminal and basal reservoirs of the Transwell cassette. On day 2, the luminal and basal media were changed as described in Table 3, below, and the cells incubated for a day. On day 3, the luminal and basal media were replaced with fresh media (identical to that from day 2 replacement) and the cells incubated for another day. In some experiments, the medium in the luminal compartment was replaced differentiation medium (DM, see Table 2) which is similar to EM but lacking in key growth factors required to support intestinal stem cells.
Cells in the S phase of the cell cycle were incubated with a pulse of 5-ethynyl-2′-deoxyuridine (EdU) pulse following the manufacturers' protocols (Click-iT EdU Alexa Fluor 647 Imaging kit, C10340, Thermo Fisher Scientific, Waltham, Massachusetts, United States of America). EdU is a nucleotide analog incorporated into DNA as it is replicated in S phase. In brief, EdU (10 μM) was added to the luminal and basal media and the cells were incubated for 3 h at 37° C. The cells then were washed with PBS and fixed with 4% paraformaldehyde in PBS for 15 min and permeabilized with 0.5% Triton-X for 20 min at 25° C. EdU incorporated into cellular DNA was visualized by reaction with Alexa 647 via click chemistry following the manufacturer's protocol (Click-iT EdU Alexa Fluor 647 Imaging kit, C10340, Thermo Fisher Scientific, Waltham, Massachusetts, United States of America).
Cell monolayers were assayed for alkaline phosphatase (ALP) activity on day 4 of culture by incubation with ALP substrate mixture (Vector Red AP substrate kit, SK-5100, Vector Laboratories Inc., Burlingame, California, United States of America) in Tris buffer (pH 8.4) for 30 min at 37° C. Then cells were washed with PBS, fixed and permeabilized as described above. To label cell DNA, Hoechst 33342 (2 μg/mL, B2261, Sigma Aldrich, St. Louis, Missouri, United States of America) was incubated with cells (1 h, 25° C.).
The […] ® insert (Corning, Inc., Corning, New York, United States of America) with cell layer from the microdevice was placed into a 12-well plate under PBS and imaged using a FLUOVIEW® FV3000® confocal microscope (Olympus Corporation, Tokyo, Japan) confocal microscope (10×, objective, numerical aperture of 0.4). Alexa 647, Vector-Red-ALP, and Hoechst 33342 were excited with a 640, 561, and 405 nm laser, respectively and the fluorescence emission was collected at 650-750 nm, 570-590 nm, and 430-470 nm, respectively. The images were analyzed with the Fiji software package. […] For all experiments, the numbers of sample sizes were estimated using a statistical power analysis based on the data from Wang et al. (Cellular and Molecular Gastroenterology and Hepatology, 2017, 4, 165-182) measuring EdU+ and ALP activities under varying conditions (α=0.05, β=0.85) using G*Power. […] A one-way ANOVA analysis was used for all statistical analyses of data obtained from the fluorescence microscopy images.

[2] = system: intestinal tumor cell lines; details: cited from earlier work

| Compound | ALP activity relative to the control [1] | normalized area of EdU+ cells compared to control without short chain fatty acid [1] | decrease of the number of Hoechst 33342+ cells per crypt ([1]; 1 mM butyrate in DM luminal medium, vs control crypts, p<0.001) | proliferation in intestinal tumor cell lines [2] |
| --- | --- | --- | --- | --- |
| CC(=O)O [acetate] | significantly decreased | significantly increased |  |  |
| CCCC(=O)O [butyrate] |  |  | about 17% |  |
| CCC(=O)O [propionate] | significantly increased | significantly decreased |  | suppress proliferation |
